Here are results for one substance from US6720324B2, “Selective melanin concentrating hormone-1 (MCH1) receptor antagonists and uses thereof” (Synaptic Pharmaceutical Corporation, priority 2000, dated 2004).

As a reminder, the Ki is a measure of affinity in units of concentration, obtained from inhibition or displacement. As usually defined, the Kb is the affinity of an antagonist, worked out from how it opposes an agonist.

Where two headings read alike, the source gives them in different places.

The target of experiment [1] is T1, human MCH1 receptor (Homo sapiens, UniProt Q99705). Kind of experiment: Radioligand competition binding with [3H]Compound 10, membranes of A293 cells. The conditions noted are these: Table 3, A293 cell membranes, [3H]Compound 10 as radioligand, read-out: hMCH1 * Ki. As for the experimental part:
(§1) For binding assays, pellets of transfected cells are suspended in ice-cold buffer (20 mM Tris.HCl, 5 mM EDTA, pH 7.4) and homogenized by sonication for 7 sec. The cell lysates are centrifuged at 200×g for 5 min at 4° C. The supernatants are then centrifuged at 40,000×g for 20 min at 4° C. The resulting pellets are washed once in the homogenization buffer and suspended in binding buffer (see methods for radioligand binding). Protein concentrations are determined by the method of Bradford (1976) using bovine serum albumin as the standard. Binding assays are usually performed immediately, however it is possible to prepare membranes in batch and store frozen in liquid nitrogen for future use.
Radioligand binding assays for the MCH1 receptor were carried out using plasmid pEXJ.HR-TL231 (ATCC Accession No. 203197). Plasmid pEXJ.HR-TL231 comprises the regulatory elements necessary for expression of DNA in a mammalian cell operatively linked to DNA encoding the human MCH1 receptor so as to permit expression thereof. Plasmid pEXJ.HR-TL231 was deposited on Sep. 17, 1998, with the American Type Culture Collection (ATCC), 12301 Parklawn Drive, Rockville, Md. 20852, U.S.A. under the provisions of the Budapest Treaty for the International Recognition of the Deposit of Microorganisms for the Purposes of Patent Procedure and was accorded ATCC Accession No. 203197. […]
(Loss of bound radioactivity is the signal in a displacement assay; it reports binding, not function.)

The target of experiment [2] is T1, human MCH1 receptor. Kind of experiment: Functional assay: intracellular calcium mobilization (antagonist potency Kb). The format is cell-based. Details: expressed in transfected cells; host or cells: COS-7 cells, transient, DEAE-dextran, plasmid pEXJ.HR-TL231 (ATCC 203197). The protocol: Intracellular calcium mobilization assays for the MCH1 receptor were carried out using plasmid pEXJ.HR-TL231 (ATCC Accession No. 203197). COS-7 cells were transiently transfected with DNA encoding the MCH1 receptor utilizing the DEAE-dextran method as described above. The intracellular free calcium concentration was measured by fluorescent imaging using the calcium sensitive fluorscent dye Fluo-3. COS-7 cells expressing the human MCH1 receptor were seeded onto sterile 96 well plates, washed with Hank's balanced salt solution (HBSS), containing 20 mM HEPES, 2.5 mM probenecid, and 0.1% BSA, and loaded with the same buffer containing 3.8 μM Fluo-3 for 1 hour at 37° C. After washing with HBSS to remove the fluo-3 solution, cells were equilibrated for 10 minutes.

Experiment [3] addresses T2, human GALR1 (Homo sapiens, UniProt P47211).
T2 construct: expressed in transfected cells
T2 sequence (P47211 1-349): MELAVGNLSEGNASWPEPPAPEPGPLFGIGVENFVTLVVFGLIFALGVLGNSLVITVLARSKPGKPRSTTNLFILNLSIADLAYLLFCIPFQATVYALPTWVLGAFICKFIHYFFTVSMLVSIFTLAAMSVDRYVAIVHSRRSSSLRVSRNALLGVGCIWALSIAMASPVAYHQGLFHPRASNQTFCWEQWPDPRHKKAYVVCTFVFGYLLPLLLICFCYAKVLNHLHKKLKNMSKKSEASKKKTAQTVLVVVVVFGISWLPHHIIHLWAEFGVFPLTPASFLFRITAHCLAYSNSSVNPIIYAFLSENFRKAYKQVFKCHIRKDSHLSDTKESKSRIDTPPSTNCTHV
The experiment can be described thus: Radioligand binding assay, cloned receptor. The conditions noted are these: read-out: hGALR1 Ki. The protocol: as §1
(§2) The methods to obtain the cDNA of the human NPY1, NPY5, GALR1, GALR2, and GALR3 and rat 5-HT2C receptors, express said receptors in heterologous systems, and carry out assays to determine binding affinity are described in the following publications and above: human NPY1 (Larhammar et al., 1992), human NPY5 (U.S. Pat. No. 5,602,024, the disclosure of which is hereby incorporated by reference in its entirety into this application), human Gal1 (Habert-Ortoli et al., 1994), human Gal2 (Smith et al., 1997), human Gal3 (Smith et al., 1998), and rat 5-HT2C (Julius et al., 1988).

For experiment [4], the target named is T3, human NPY5 (Homo sapiens, UniProt Q15761).
T3 construct: expressed in transfected cells
T3 sequence (Q15761 1-445): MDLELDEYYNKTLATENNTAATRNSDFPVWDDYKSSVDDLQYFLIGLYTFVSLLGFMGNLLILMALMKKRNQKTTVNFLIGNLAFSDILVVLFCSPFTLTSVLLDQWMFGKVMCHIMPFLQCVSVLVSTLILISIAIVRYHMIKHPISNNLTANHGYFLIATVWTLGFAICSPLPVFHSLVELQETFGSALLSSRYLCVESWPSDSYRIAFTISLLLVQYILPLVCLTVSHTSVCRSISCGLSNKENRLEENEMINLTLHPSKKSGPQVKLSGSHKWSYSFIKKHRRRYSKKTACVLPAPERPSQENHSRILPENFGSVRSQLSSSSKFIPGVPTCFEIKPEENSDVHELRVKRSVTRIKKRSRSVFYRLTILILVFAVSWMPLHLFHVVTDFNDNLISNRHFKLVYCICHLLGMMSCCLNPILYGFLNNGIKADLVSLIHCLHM
The experiment can be described thus: Radioligand binding assay, cloned receptor. The conditions noted are these: read-out: hNPY5 Ki. The protocol: as §1, §2

T1 sequence (Q99705 whole entry): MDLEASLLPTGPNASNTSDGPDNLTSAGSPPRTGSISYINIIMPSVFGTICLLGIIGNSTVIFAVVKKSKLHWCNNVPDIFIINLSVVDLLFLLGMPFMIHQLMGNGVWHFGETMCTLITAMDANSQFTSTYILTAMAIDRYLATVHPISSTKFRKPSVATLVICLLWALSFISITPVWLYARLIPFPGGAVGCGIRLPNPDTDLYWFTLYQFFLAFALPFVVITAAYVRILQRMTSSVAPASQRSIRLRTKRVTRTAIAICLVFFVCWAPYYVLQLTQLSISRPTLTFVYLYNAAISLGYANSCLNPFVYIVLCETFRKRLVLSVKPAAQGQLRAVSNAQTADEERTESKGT

Turning to “2-(3,4-DIFLUOROPHENYL)4,5-DIHYDROIMIDAZOLE-1-CARBOXYLIC ACID {3-[4-PHENYL-4-(4-BROMO-5-METHYLTHIOPNEN-2-YL)]PROPYL}-AMIDE [Example 19]”, the Ki in experiment [1] was 3 nM; in experiment [3] (Table 2), > 50000 nM; in experiment [3] (Table 3), > 50000 nM; in experiment [4] (Table 2) it was > 50000 nM; in experiment [4] (Table 3) it was > 50000 nM. In addition, the Kb stood at 7 nM in experiment [2] (Table 1, cloned human MCH1 receptor, functional assay, read-out: Kb (nM) hMCH1); 7 nM in experiment [2] (Table 2, antagonist potency at the human MCH1 receptor, read-out: hMCH1 Kb); 7 nM in experiment [2] (Table 3, antagonist potency at the human MCH1 receptor, read-out: hMCH1 Kb).
